From patent US20220016146A1, “METHOD OF TREATING AGE-RELATED MACULAR DEGENERATION” (ZHUHAI QiWEl BIO-TECHNOLOGY LTD., priority 2018, published 2022)

Columns and labels:
Bacillus megaterium [1] = assay: Antibiotic sensitivity testing in petri dishes (MIC method); assay type: cell-based; details: FIG. 1; for sensitivity of Bacillus megaterium to antimicrobial agent / control of growth in vitro: 1*10^7 bacteria per culture, 37° C., 24 h
Experimental: The bacterial culture medium (HuanKai Microbial, Guangzhou, China) containing peptone 5 g, beef extract 3 g, NaCl 5 g, agar 15 g, and MnSO4 5 mg in 1 L ddH2O (pH=7.2) was prepared in conical flask (Drtech, Guangzhou, China) and was sterilized in the autoclave (HIRAYAMA, HEV-50, Japan) at 121° C. for 30 min. Antibiotics (ampicillin, vancomycin, neomycin, metronidazole, and tetracycline, purchased from Sigma, USA) at various concentrations were added into cooled medium. Bacillus megaterium (total 1*10^7 per culture) was cultured in the incubator (HettCube 200, Germany) at 37° C. for 24 h.
To test whether antibiotics can control the growth of Bacillus megaterium in vitro and in vivo, an antibiotic sensitivity screening test in petri dishes was carried out. The sensitivity of Bacillus megaterium to several major antimicrobial agents including Ampicillin, vancomycin, neomycin, metronidazole, and tetracycline were examined using the minimum inhibitory concentration (MIC) method.

Bacillus megaterium [2] = assay type: in vivo, monkey
Experimental: The inventors collected both AH and vitreous humor (VH) specimens from AMD patients and were able to detect B. megaterium DNA in both uncultured and cultured samples. The inventors further examined whether subretinal inoculation of AH and VH cultures which had B. megaterium, as well as the cultured single species of B. megaterium led to AMD like pathology in macaque. Briefly, about 20 CFU of bacteria (in 20 μl PBS) from AH, VH, and B. megaterium cultures were injected subretinally and PBS was used as a control. The fundus examination of macaque eye was performed before (Day 0) and after bacterial inoculation on Day 1, Day 3, Day 35 as well as Day 47. The PBS injection left only visible scar on the retina, while all bacterial inoculations led to drusenoid lesions on retinal tissues. Drusen-like nodules were also visible under the RPE layer. Fluorescence in situ hybridization results also located B. megaterium in drusenoid but not in the normal tissues post inoculation. An elevation in the expression of C5A, CFH, CASPASE1, and NLRP3 proteins was also detected in the B. megaterium infected drusenoid lesion and para-lesion tissues as compared to the uninfected normal retina in macaque.
Next, Bacillus megaterium subretinal inoculation model was used to test whether antibiotics might be able to change the bacteria-induced drusenoid pathology in monkey retinal tissues.

Compound	fold less effective in controlling the growth of Bacillus megaterium (Bacillus megaterium [1]; compared with neomycin) [fold]	sensitivity of Bacillus megaterium to antimicrobial agent / control of growth in vitro (Bacillus megaterium [1])	size of drusenoid lesion in retinal tissue (Bacillus megaterium [2]; intravitreous 0.5 mg, one injection on Day 2 post bacterial inoculation, monkey, FIG. 2)	ocular complications after intraocular administration (Bacillus megaterium [2]; intraocular administration in monkey (data not shown))
Cc1ncc([N+](=O)[O-])n1CCO [metronidazole]	10000	–	–	–
CN[C@H](CC(C)C)C(=O)N[C@H]1C(=O)N[C@@H](CC(N)=O)C(=O)N[C@H]2C(=O)N[C@H]3C(=O)N[C@H](C(=O)N[C@H](C(=O)O)c4cc(O)cc(O)c4-c4cc3ccc4O)[C@H](O)c3ccc(c(Cl)c3)Oc3cc2cc(c3O[C@@H]2O[C@H](CO)[C@@H](O)[C@H](O)[C@H]2O[C@H]2C[C@](C)(N)[C@H](O)[C@H](C)O2)Oc2ccc(cc2Cl)[C@H]1O [vancomycin]	–	able to inhibit the growth	reduction in the size of drusenoid lesion	–
neomycin	–	most sensitive	–	significant ocular complications including ophthalmatrophia
